Measured values from patent US20130096156A1 (priority 2010, published 2013).
Read-outs that look alike come from different tables or passages of the source.

How the values were obtained:
Pythium ultimum = Pythium ultimum / liquid culture (seedling damping off); format: cell-based; conditions: Globisporangium ultimum, liquid culture in PDB, 24° C., 2-3 days after application, read-out: inhibit fungal infestation (inhibition of growth determined photometrically)
Method: Mycelia fragments or conidia suspensions of a fungus, prepared either freshly from liquid cultures of the fungus or from cryogenic storage, are directly mixed into nutrient broth. DMSO solutions of the test compound (max. 10 mg/ml) is diluted with 0.025% Tween20 by factor 50 and 10 μl of this solution is pipetted into a microtiter plate (96-well format) and the nutrient broth containing the fungal spores/mycelia fragments is then added to give an end concentration of the tested compound. The test plates are incubated at 24° C. and 96% rH in the dark. The inhibition of fungal growth is determined photometrically after 2-6 days and antifungal activity is calculated.
Mycelia fragments and oospores of a newly grown liquid culture of the fungus are directly mixed into nutrient broth (PDB potato dextrose broth). After placing a (DMSO) solution of test compound into a microtiter plate (96-well format), the nutrient broth containing the fungal mycelia/spore mixture is added. The test plates are incubated at 24° C. and the inhibition of growth is determined photometrically 2-3 days after application.

[1] = test system: Blumeria graminis f. sp. tritici (Erysiphe graminis f. sp. tritici); assay: Blumeria graminis f. sp. tritici / wheat / leaf disc preventative (powdery mildew on wheat); format: in vivo; conditions: foliar, wheat leaf segments cv. Kanzler, inoculated 1 day after application, assessed 6-8 days after application, read-out: inhibit fungal infestation (percent disease control compared to untreated)
Method: (§1) Leaf disks of various plant species (diameter 14 mm) are cut from plants grown in the greenhouse. The cut leaf disks are placed in multiwell plates (24-well format) onto water agar. Immediately after cutting the leaf disks are sprayed with a test solution.
(§2) Compounds to be tested are prepared as DMSO solutions (max. 10 mg/ml). Just before spraying the solutions are diluted to the appropriate concentrations with 0.025% Tween20. After drying, the leaf disks are inoculated with a spore suspension of the appropriate pathogenic fungus.
(§3) After an incubation time of 3-7 days after inoculation at defined conditions (temp, rH, light, etc.) according to the respective test system, the activity of the test compound is assessed as antifungal activity.
Wheat leaf segments cv. Kanzler are placed on agar in a multiwell plate (24-well format) and sprayed with the formulated test compound diluted in water. The leaf disks are inoculated by shaking powdery mildew infected plants above the test plates 1 day after application. The inoculated leaf disks are incubated at 20° C. and 60% rh under a light regime of 24 h darkness followed by 12 h light/12 h darkness in a climate chamber and the activity of a compound is assessed as percent disease control compared to untreated when an appropriate level of disease damage appears on untreated check leaf segments (6-8 days after application).

Phytophthora infestans = assay: whole plant or invertebrate; format: in vivo; conditions: in Solanum lycopersicum, foliar, read-out: inhibit fungal infestation (percent disease control compared to untreated)
Plasmopara viticola = Plasmopara viticola / grape / leaf disc preventative; format: in vivo; conditions: foliar, grape vine leaf disks, inoculated 1 day after application, assessed 6-8 days after application, read-out: inhibit fungal infestation (percent disease control compared to untreated)
Method: as §1, §2, §3
Grape vine leaf disks are placed on water agar in multiwell plates (24-well format) and sprayed with the formulated test compound diluted in water. The leaf disks are inoculated with a spore suspension of the fungus 1 day after application. The inoculated leaf disks are incubated at 19° C. and 80% rh under a light regime of 12 h light/12 h darkness in a climate cabinet and the activity of a compound is assessed as percent disease control compared to untreated when an appropriate level of disease damage appears in untreated check leaf disks (6-8 days after application).

Compound | inhibition at 200 ppm (Pythium ultimum) [%] | inhibition at 200 ppm [1] [%] | inhibition at 200 ppm (Phytophthora infestans) [%] | melting point [°C] | inhibition at 200 ppm ([1]; in Triticum aestivum) [%] | inhibition at 200 ppm (Plasmopara viticola) [%]
CSC(Oc1ccc2ncc(C)cc2c1)C(=O)NC(C)(C)C (stereo not shown) [Compound 1, N-tert-Butyl-2-(3-methyl-quinolin-6-yloxy)-2-methylsulfanyl-acetamide] | ≥ 80 | ≥ 80 | ≥ 80 | 126 to 127 |  | 
CCc1cnc2ccc(OC(CC)C(=O)NC(C)(C)/C=N/OC)cc2c1 (stereo not shown) [Compound 31] | ≥ 80 |  | ≥ 80 | 125 to 127 | ≥ 80 | 
CC#CC(C)(C)NC(=O)C(Oc1cc(F)c2ncc(CC)cc2c1)SC (stereo not shown) [Compound 15, N-(1,1-Dimethyl-but-2-ynyl)-2-(3-ethyl-8-fluoro-quinolin-6-yloxy)-2-methylsulfanyl-acetamide] | ≥ 80 | ≥ 80 | ≥ 80 | 151 to 153 |  | ≥ 80
C=Cc1cnc2c(F)cc(OC(SC)C(=O)NC(C)CC)cc2c1 (stereo not shown) [Compound 38, N-sec-Butyl-2-(8-fluoro-3-vinyl-quinolin-6-yloxy)-2-methylsulfanyl-acetamide] | ≥ 80 | ≥ 80 |  | 110 to 112 |  | 
COCC#CC(C)(C)NC(=O)C(Oc1cc(C)c2ncc(C)cc2c1)SC (stereo not shown) [Compound 7, 2-(3,8-Dimethyl-quinolin-6-yloxy)-N-(4-methoxy-1,1-dimethyl-but-2-ynyl)-2-methylsulfanyl-acetamide] | ≥ 80 | ≥ 80 | ≥ 80 | 124 to 126 |  | ≥ 80
CC#CC(C)(C)NC(=O)C(Oc1cc(Cl)c2ncc(CC)cc2c1)SC (stereo not shown) |  |  |  | 186 to 188 |  | 
C=Cc1cnc2c(Cl)cc(OC(SC)C(=O)NC(C)(C)C#N)cc2c1 (stereo not shown) |  |  |  | 138 to 141 |  | 
CCc1cnc2c(Cl)cc(OC(SC)C(=O)NC3CCC3)cc2c1 (stereo not shown) |  |  |  | 154 to 156 |  | 
CCc1cnc2ccc(OC(CC)C(=O)NC(C)(C)C#CCOC)cc2c1 (stereo not shown) [Compound 29, 2-(3-Ethyl-quinolin-6-yloxy)-N-(4-methoxy-1,1-dimethyl-but-2-ynyl)-butyramide] | ≥ 80 | ≥ 80 | ≥ 80 | 99 to 101 |  | 
CCc1cnc2c(C)cc(OC(SC)C(=O)NC3(C)CCC3)cc2c1 (stereo not shown) [Compound 22, 2-(3-Ethyl-8-methyl-quinolin-6-yloxy)-N-(1-methyl-cyclobutyl)-2-methylsulfanyl-acetamide] | ≥ 80 |  | ≥ 80 | 150 to 151 |  | ≥ 80
CCc1cnc2ccc(OC(CC)C(=O)NC(C)(C#N)COC)cc2c1 (stereo not shown) [Compound 32, N-(1-Cyano-2-methoxy-1-methyl-ethyl)-2-(3-ethyl-quinolin-6-yloxy)-butyramide] |  | ≥ 80 |  | 114 to 117 |  | 
CSC(Oc1cc(C)c2ncc(C)cc2c1)C(=O)NC(C)(C)C (stereo not shown) [Compound 6, N-tert-Butyl-2-(3,8-dimethyl-quinolin-6-yloxy)-2-methylsulfanyl-acetamide] | ≥ 80 | ≥ 80 | ≥ 80 | 126 to 127 |  | ≥ 80
CCc1cnc2c(Cl)cc(OC(SC)C(=O)NC(C)(C)/C=N/OC)cc2c1 (stereo not shown) [Compound 24, 2-(8-Chloro-3-ethyl-quinolin-6-yloxy)-N-(2-methoxyimino-1,1-dimethyl-ethyl)-2-methylsulfanyl-acetamide] | ≥ 80 | ≥ 80 | ≥ 80 | 142 to 144 |  | ≥ 80
CCc1cnc2ccc(OC(CC)C(=O)NC3(C)CCC3)cc2c1 (stereo not shown) [Compound 30, 2-(3-Ethyl-quinolin-6-yloxy)-N-(1-methyl-cyclobutyl)-butyramide] | ≥ 80 | ≥ 80 | ≥ 80 | 110 to 112 |  | 
C=Cc1cnc2c(Cl)cc(OC(CC)C(=O)NC(C)(C)C)cc2c1 (stereo not shown) |  |  |  | 100 to 102 |  | 
CCC(C)(C)NC(=O)C(Oc1ccc2ncc(C)cc2c1)SC (stereo not shown) [Compound 5, N-(1,1-Dimethyl-propyl)-2-(3-methyl-quinolin-6-yloxy)-2-methylsulfanyl-acetamide] | ≥ 80 |  | ≥ 80 | 103 to 104 |  | 
C=Cc1cnc2c(Cl)cc(OC(OC)C(=O)NC(C)C)cc2c1 (stereo not shown) [Compound 40, 2-(8-Chloro-3-vinyl-quinolin-6-yloxy)-N-iso-propyl-2-methoxy-acetamide] |  | ≥ 80 |  | 108 to 112 |  | 
CCc1cnc2c(C)cc(OC(SC)C(=O)NC(C)(C)C#CCOC)cc2c1 (stereo not shown) [Compound 20, 2-(3-Ethyl-8-methyl-quinolin-6-yloxy)-N-(4-methoxy-1,1-dimethyl-but-2-ynyl)-2-methylsulfanyl-acetamide] | ≥ 80 |  | ≥ 80 | 137 to 138 |  | ≥ 80
CCc1cnc2c(Cl)cc(OC(SC)C(=O)NC(C)(C)C#CCOC)cc2c1 (stereo not shown) [Compound 27, 2-(8-Chloro-3-ethyl-quinolin-6-yloxy)-N-(4-methoxy-1,1-dimethyl-but-2-ynyl)-2-methylsulfanyl-acetamide] |  | ≥ 80 | ≥ 80 | 139 to 142 |  | ≥ 80
CCc1cnc2c(Cl)cc(OC(SC)C(=O)NC3(C)CCC3)cc2c1 (stereo not shown) [Compound 28, 2-(8-Chloro-3-ethyl-quinolin-6-yloxy)-N-(1-methyl-cyclobutyl)-2-methylsulfanyl-acetamide] | ≥ 80 | ≥ 80 |  | 148 to 150 |  | ≥ 80
COCC(C)(C#N)NC(=O)C(Oc1cc(C)c2ncc(C)cc2c1)SC (stereo not shown) [Compound 11, N-(1-Cyano-2-methoxy-1-methyl-ethyl)-2-(3,8-dimethyl-quinolin-6-yloxy)-2-methylsulfanyl-acetamide] | ≥ 80 | ≥ 80 |  | 115 to 117 |  | 
CC#CC(C)(C)NC(=O)C(Oc1cc(C)c2ncc(CC)cc2c1)SC (stereo not shown) [Compound 19, N-(1,1-Dimethyl-but-2-ynyl)-2-(3-ethyl-8-methyl-quinolin-6-yloxy)-2-methylsulfanyl-acetamide] | ≥ 80 |  | ≥ 80 | 166 to 167 |  | ≥ 80
CCc1cnc2c(C)cc(OC(SC)C(=O)NC(C)(C)C)cc2c1 (stereo not shown) [Compound 17, N-tert-Butyl-2-(3-ethyl-8-methyl-quinolin-6-yloxy)-2-methylsulfanyl-acetamide] | ≥ 80 |  | ≥ 80 | 153 to 154 |  | ≥ 80
CCc1cnc2c(C)cc(OC(SC)C(=O)NC3CCC3)cc2c1 (stereo not shown) [Compound 21, N-Cyclobutyl-2-(3-ethyl-8-methyl-quinolin-6-yloxy)-2-methylsulfanyl-acetamide] | ≥ 80 |  | ≥ 80 | 157 to 158 |  | ≥ 80
COCC#CC(C)(C)NC(=O)C(Oc1ccc2ncc(C)cc2c1)SC (stereo not shown) [Compound 4, N-(4-Methoxy-1,1-dimethyl-but-2-ynyl)-2-(3-methyl-quinolin-6-yloxy)-2-methylsulfanyl-acetamide] | ≥ 80 | ≥ 80 | ≥ 80 | 100 to 102 |  | 
C=Cc1cnc2ccc(OC(CC)C(=O)NC(C)(C#N)COC)cc2c1 (stereo not shown) [Compound 39, N-(1-Cyano-2-methoxy-1-methyl-ethyl)-2-(3-vinyl-quinolin-6-yloxy)-butyramide] | ≥ 80 | ≥ 80 |  | 120 to 125 |  | 
